Patent US20240115744A1, “FIBRIN-BINDING COMPOUNDS FOR IMAGING AND TREATMENT” (Collagen Medical, LLC, priority 2019, published 2024)
Read-outs that look alike come from different tables or passages of the source. Where a SMILES comes first, the peptide text is derived from it. Bridges are numbered along the chain shown (N, C = ends). [ ]: non-standard residue; d: D form. The star is where a group is joined. Tyr(3-Cl) = N[C@@H](Cc1ccc(O)c(Cl)c1)C(=O)O; Nicotinoyl(6-F) = O=C(c1ccc(F)nc1)*; Hyp = O=C(O)[C@@H]1C[C@@H](O)CN1

B1: Compound 10 (peptide)
peptide: {Nicotinoyl(6-F)}-Y[dE]C[Hyp][Tyr(3-Cl)]GLCYI[dL]-NH2
modifications: disulfide 3-8
SMILES: CC[C@H](C)[C@H](NC(=O)[C@H](Cc1ccc(O)cc1)NC(=O)[C@@H]1CSSC[C@H](NC(=O)[C@@H](CCC(=O)O)NC(=O)[C@H](Cc2ccc(O)cc2)NC(=O)c2ccc(F)nc2)C(=O)N2C[C@H](O)C[C@H]2C(=O)N[C@@H](Cc2ccc(O)c(Cl)c2)C(=O)NCC(=O)N[C@@H](CC(C)C)C(=O)N1)C(=O)N[C@H](CC(C)C)C(N)=O
B2: Compound 11 (peptide)
peptide: {Nicotinoyl(6-F)}-[dY][dE]C[Hyp][Tyr(3-Cl)]GLCYI[dQ]-NH2
modifications: disulfide 3-8
SMILES: CC[C@H](C)[C@H](NC(=O)[C@H](Cc1ccc(O)cc1)NC(=O)[C@@H]1CSSC[C@H](NC(=O)[C@@H](CCC(=O)O)NC(=O)[C@@H](Cc2ccc(O)cc2)NC(=O)c2ccc(F)nc2)C(=O)N2C[C@H](O)C[C@H]2C(=O)N[C@@H](Cc2ccc(O)c(Cl)c2)C(=O)NCC(=O)N[C@@H](CC(C)C)C(=O)N1)C(=O)N[C@H](CCC(N)=O)C(N)=O

Columns and labels:
[1] = target: T1, soluble fibrin fragment DD(E) (Homo sapiens, UniProt P02671+P02675+P02679, DEL433-453); experiment: Fluorescence polarization DD(E) binding/displacement assay; conditions: for Ki: displacement of TRITC-labelled peptide from DD(E), TBS·Ca with 2% DMSO, estimated uncertainty ±10%; for Kd: sub-micromolar affinity, read-out: affinity (Kd) to fibrin as assessed by DD(E) assay
T1 construct: partial plasmin digestion of purified fibrin gel followed by size-exclusion chromatographic purification; made in house
Experimental: DD(E) was prepared using a published procedure which involved partial plasmin digestion of purified fibrin gel followed by size-exclusion chromatographic purification, and purity was assessed by SDS-PAGE. Peptides modified at the N-terminus with tetramethyl-rhodamine (TRITC) dye bind to DD(E). Direct fluorescent peptide binding to DD(E) was measured by a fluorescence polarization (FP) assay. The anisotropy (robs) of the fluorescently labeled peptides binding to DD(E) (0-20 μM) was measured in Tris buffered saline (50 mM Tris, 100 mM NaCl and 2 mM CaCl2) at fixed compound concentrations, and the data were fit to a single site model (Eq. 1) to obtain the dissociation constant (Kd) for the DD(E)·(fluorescent peptide) complex.
Displacement of the fluorescent peptide by non-fluorescent compound was measured to determine inhibition constants (Ki). In the presence of an inhibitor, an apparent dissociation constant for the fluorescent compound (Kd app) is determined using Eq. 2. The inhibition constant Ki is related to Kd app by Eq. 2, wherein Kd is the true dissociation constant of the fluorescent compound measured in the absence of inhibitor.
Non-labeled peptide binding to DD(E) was measured by a compound displacement assay, where a DD(E)/Fl·pep complex formed at fixed concentrations of DD(E) and Fl·pep was titrated with increasing concentrations of unlabeled compound. The compound was assayed by mixing DD(E) (4.0 μM, 10 μL) and TRITC (0.1 μM, 10 μL) with increasing concentrations of competing peptide (0.4-100 μM, 20 μL) in TBS·Ca with 2% DMSO in a final volume of 40 μL. Fluorescence polarization of the samples (10 μL, triplicate wells) in ascending concentrations was measured in a 384-well microplate (Corning flat black plate), using a Tecan Infinite 200 Pro fluorescence microplate reader equipped with fluorescence polarization filters, a 535 nm excitation filter and a 590 nm fluorescence emission filter. Average polarization (mP units) readings for each dilution of the compound of interest was converted to anisotropy (r) using Eq. 3.
The data defined a displacement curve (robs vs. [Peptide]), and the inhibitory binding constant, Ki, was determined by least squares fitting of the data (estimated uncertainty in Ki±10%). See Table 2 for the Ki values for the Compounds from Example 1.

[2] = target: soluble fibrin fragment DD(E); experiment: fluorescence polarization, displacement of the TRITC peptide from DD(E)

T1 sequence (P02671 130-216 limits assumed, stated change not applied): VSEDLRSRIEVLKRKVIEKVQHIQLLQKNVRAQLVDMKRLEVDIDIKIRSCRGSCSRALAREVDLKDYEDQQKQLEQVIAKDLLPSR
T1 sequence (P02675 164-491 limits assumed, stated change not applied): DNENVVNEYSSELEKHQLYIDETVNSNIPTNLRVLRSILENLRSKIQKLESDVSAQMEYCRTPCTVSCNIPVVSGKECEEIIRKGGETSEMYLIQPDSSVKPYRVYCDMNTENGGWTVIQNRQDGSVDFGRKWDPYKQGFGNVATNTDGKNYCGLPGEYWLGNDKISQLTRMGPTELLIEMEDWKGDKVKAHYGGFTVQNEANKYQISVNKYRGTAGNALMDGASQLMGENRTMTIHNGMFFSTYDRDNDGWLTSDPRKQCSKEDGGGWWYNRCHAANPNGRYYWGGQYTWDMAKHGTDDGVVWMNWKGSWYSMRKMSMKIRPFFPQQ
T1 sequence (P02679 114-432 limits assumed, stated change not applied): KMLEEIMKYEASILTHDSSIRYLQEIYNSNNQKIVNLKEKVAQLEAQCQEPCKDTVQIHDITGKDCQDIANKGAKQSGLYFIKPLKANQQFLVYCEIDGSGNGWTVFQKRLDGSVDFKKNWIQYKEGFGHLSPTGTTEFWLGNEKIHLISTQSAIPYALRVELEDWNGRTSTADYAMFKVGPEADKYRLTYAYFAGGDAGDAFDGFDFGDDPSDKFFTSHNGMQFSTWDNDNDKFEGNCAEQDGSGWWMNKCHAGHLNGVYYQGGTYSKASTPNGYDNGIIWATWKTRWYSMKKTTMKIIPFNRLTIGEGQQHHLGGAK
T1 sequence (P02671 36-97 partner limits assumed): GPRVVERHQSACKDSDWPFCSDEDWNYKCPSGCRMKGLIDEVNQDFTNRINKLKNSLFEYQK
T1 sequence (P02675 45-152 partner limits assumed): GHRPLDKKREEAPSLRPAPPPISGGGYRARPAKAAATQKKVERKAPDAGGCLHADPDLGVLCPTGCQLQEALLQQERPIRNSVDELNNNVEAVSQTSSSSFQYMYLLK
T1 sequence (P02679 27-88 partner limits assumed): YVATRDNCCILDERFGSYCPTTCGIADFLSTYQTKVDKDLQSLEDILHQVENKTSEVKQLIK

Row | Molecule | Ki ([1]; read-out: Ki) | also measured
1 | CC[C@H](C)[C@H](NC(=O)[C@H](Cc1c[nH]cn1)NC(=O)[C@@H]1CSSC[C@H](NC(=O)[C@@H](CCC(=O)O)NC(=O)[C@@H](Cc2ccc(O)cc2)NC(=O)c2ccc(F)nc2)C(=O)N2C[C@H](O)C[C@H]2C(=O)N[C@@H](Cc2ccc(O)c(Cl)c2)C(=O)NCC(=O)N[C@@H](CC(C)C)C(=O)N1)C(=O)N[C@@H](CCC(N)=O)C(N)=O [Compound 2, -y-e-C-Hyp-Y(3-Cl)-G-L-C-H-I-Q-] ({Nicotinoyl(6-F)}-[dY][dE]C[Hyp][Tyr(3-Cl)]GLCHIQ-NH2; disulfide 3-8) | 70 nM | Kd [1]: < 600 nM
2 | CC[C@H](C)[C@H](NC(=O)[C@H](Cc1c[nH]cn1)NC(=O)[C@@H]1CSSC[C@H](NC(=O)[C@@H](CCC(=O)O)NC(=O)[C@@H](Cc2ccc(O)cc2)NC(=O)c2ccc(F)nc2)C(=O)N2C[C@H](O)C[C@H]2C(=O)N[C@@H](Cc2ccc(O)c(Cl)c2)C(=O)NCC(=O)N[C@@H](CC(C)C)C(=O)N1)C(=O)N[C@H](CC(C)C)C(N)=O [Compound 3, -y-e-C-Hyp-Y(3-Cl)-G-L-C-H-I-1-] ({Nicotinoyl(6-F)}-[dY][dE]C[Hyp][Tyr(3-Cl)]GLCHI[dL]-NH2; disulfide 3-8) | 140 nM | Kd [1]: < 600 nM
3 | CC[C@H](C)[C@H](NC(=O)[C@H](Cc1c[nH]cn1)NC(=O)[C@@H]1CSSC[C@H](NC(=O)[C@@H](CCC(=O)O)NC(=O)[C@H](Cc2ccc(O)cc2)NC(=O)c2ccc(F)nc2)C(=O)N2C[C@H](O)C[C@H]2C(=O)N[C@@H](Cc2ccc(O)c(Cl)c2)C(=O)NCC(=O)N[C@@H](CC(C)C)C(=O)N1)C(=O)N[C@@H](CCC(N)=O)C(N)=O [Compound 4, -Y-e-C-Hyp-Y(3-Cl)-G-L-C-H-I-Q-] ({Nicotinoyl(6-F)}-Y[dE]C[Hyp][Tyr(3-Cl)]GLCHIQ-NH2; disulfide 3-8) | 180 nM | Kd [1]: < 600 nM
4 | CC[C@H](C)[C@H](NC(=O)[C@H](Cc1c[nH]cn1)NC(=O)[C@@H]1CSSC[C@H](NC(=O)[C@@H](CCC(=O)O)NC(=O)[C@H](Cc2ccc(O)cc2)NC(=O)c2ccc(F)nc2)C(=O)N2C[C@H](O)C[C@H]2C(=O)N[C@@H](Cc2ccc(O)c(Cl)c2)C(=O)NCC(=O)N[C@@H](CC(C)C)C(=O)N1)C(=O)N[C@H](CCC(N)=O)C(N)=O [Compound 5, -Y-e-C-Hyp-Y(3-Cl)-G-L-C-H-I-q-] ({Nicotinoyl(6-F)}-Y[dE]C[Hyp][Tyr(3-Cl)]GLCHI[dQ]-NH2; disulfide 3-8) | 230 nM | Kd [1]: < 600 nM
5 | CC[C@H](C)[C@H](NC(=O)[C@H](Cc1c[nH]cn1)NC(=O)[C@@H]1CSSC[C@H](NC(=O)[C@@H](CCC(=O)O)NC(=O)[C@H](Cc2ccc(O)cc2)NC(=O)c2ccc(F)nc2)C(=O)N2C[C@H](O)C[C@H]2C(=O)N[C@@H](Cc2ccc(O)c(Cl)c2)C(=O)NCC(=O)N[C@@H](CC(C)C)C(=O)N1)C(=O)N[C@H](CC(C)C)C(N)=O [Compound 8, -Y-e-C-Hyp-Y(3-Cl)-G-L-C-H-I-1-] ({Nicotinoyl(6-F)}-Y[dE]C[Hyp][Tyr(3-Cl)]GLCHI[dL]-NH2; disulfide 3-8) | 640 nM | –
6 | CC[C@H](C)[C@H](NC(=O)[C@H](Cc1ccc(O)cc1)NC(=O)[C@@H]1CSSC[C@H](NC(=O)[C@@H](CCC(=O)O)NC(=O)[C@@H](Cc2ccc(O)cc2)NC(=O)c2ccc(F)nc2)C(=O)N2C[C@H](O)C[C@H]2C(=O)N[C@@H](Cc2ccc(O)c(Cl)c2)C(=O)NCC(=O)N[C@@H](CC(C)C)C(=O)N1)C(=O)N[C@H](CC(C)C)C(N)=O [Compound 9, -y-e-C-Hyp-Y(3-Cl)-G-L-C-Y-I-1-] ({Nicotinoyl(6-F)}-[dY][dE]C[Hyp][Tyr(3-Cl)]GLCYI[dL]-NH2; disulfide 3-8) | 730 nM | –
7 | CC[C@H](C)[C@H](NC(=O)[C@H](Cc1ccc(O)cc1)NC(=O)[C@@H]1CSSC[C@H](NC(=O)[C@@H](CCC(=O)O)NC(=O)[C@H](Cc2ccc(O)cc2)NC(=O)c2ccc(F)nc2)C(=O)N2C[C@H](O)C[C@H]2C(=O)N[C@@H](Cc2ccc(O)c(Cl)c2)C(=O)NCC(=O)N[C@@H](CC(C)C)C(=O)N1)C(=O)N[C@H](CC(C)C)C(N)=O [Compound 10, -Y-e-C-Hyp-Y(3-Cl)-G-L-C-Y-I-1-] ({Nicotinoyl(6-F)}-Y[dE]C[Hyp][Tyr(3-Cl)]GLCYI[dL]-NH2; disulfide 3-8) | 950 nM | –
8 | CC[C@H](C)[C@H](NC(=O)[C@H](Cc1ccc(O)cc1)NC(=O)[C@@H]1CSSC[C@H](NC(=O)[C@@H](CCC(=O)O)NC(=O)[C@@H](Cc2ccc(O)cc2)NC(=O)c2ccc(F)nc2)C(=O)N2C[C@H](O)C[C@H]2C(=O)N[C@@H](Cc2ccc(O)c(Cl)c2)C(=O)NCC(=O)N[C@@H](CC(C)C)C(=O)N1)C(=O)N[C@H](CCC(N)=O)C(N)=O [Compound 11, -y-e-C-Hyp-Y(3-Cl)-G-L-C-Y-I-q-] ({Nicotinoyl(6-F)}-[dY][dE]C[Hyp][Tyr(3-Cl)]GLCYI[dQ]-NH2; disulfide 3-8) | 1010 nM | –
9 | CC[C@H](C)[C@H](NC(=O)[C@H](Cc1ccc(O)cc1)NC(=O)[C@@H]1CSSC[C@H](NC(=O)[C@@H](CCC(=O)O)NC(=O)[C@H](Cc2ccc(O)cc2)NC(=O)c2ccc(F)nc2)C(=O)N2C[C@H](O)C[C@H]2C(=O)N[C@@H](Cc2ccc(O)c(Cl)c2)C(=O)N[C@@H](CC(=O)O)C(=O)N[C@@H](CC(C)C)C(=O)N1)C(=O)N[C@@H](CCC(N)=O)C(N)=O [Compound 12, -Y-e-C-Hyp-Y(3-Cl)-D-L-C-Y-I-Q-] ({Nicotinoyl(6-F)}-Y[dE]C[Hyp][Tyr(3-Cl)]DLCYIQ-NH2; disulfide 3-8) | 1200 nM | –
10 | CC[C@H](C)[C@H](NC(=O)[C@H](Cc1ccc(O)cc1)NC(=O)[C@@H]1CSSC[C@H](NC(=O)[C@@H](CCC(=O)O)NC(=O)[C@H](Cc2ccc(O)cc2)NC(=O)c2ccc(F)nc2)C(=O)N2C[C@H](O)C[C@H]2C(=O)N[C@@H](Cc2ccc(O)c(Cl)c2)C(=O)NCC(=O)N[C@@H](CC(C)C)C(=O)N1)C(=O)N[C@H](CCC(N)=O)C(N)=O [Compound 13, -Y-e-C-Hyp-Y(3-Cl)-G-L-C-Y-I-q-] ({Nicotinoyl(6-F)}-Y[dE]C[Hyp][Tyr(3-Cl)]GLCYI[dQ]-NH2; disulfide 3-8) | 1250 nM | –
11 | CC[C@H](C)[C@H](NC(=O)[C@H](Cc1ccc(O)cc1)NC(=O)[C@@H]1CSSC[C@H](NC(=O)[C@@H](CCC(=O)O)NC(=O)[C@H](Cc2ccc(O)cc2)NC(=O)c2ccc(F)nc2)C(=O)N2C[C@H](O)C[C@H]2C(=O)N[C@@H](Cc2ccc(O)c(Cl)c2)C(=O)N[C@H](CC(=O)O)C(=O)N[C@@H](CC(C)C)C(=O)N1)C(=O)N[C@@H](CCC(N)=O)C(N)=O [Compound 14, -Y-e-C-Hyp-Y(3-Cl)-d-L-C-Y-I-Q-] ({Nicotinoyl(6-F)}-Y[dE]C[Hyp][Tyr(3-Cl)][dD]LCYIQ-NH2; disulfide 3-8) | 2760 nM | –
12 | -Y-h-C-Hyp-Y(3-Cl)-G-L-C-Y-I-Q- ({Nicotinoyl(6-F)}-Y[dH]C[Hyp][Tyr(3-Cl)]GLCYIQ-NH2; disulfide 3-8; not fully specified; printed as -Y-h-C-Hyp-Y(3-Cl)-G-L-C-Y-I-Q-) [Compound 15, N-terminal modified peptide (F is fluorine), C-terminal amide] | – | Ki [1]: No
13 | B1 | – | Ki [2]: 950 nM
14 | B2 | – | Ki [2]: 1010 nM
